Laboratory results from the supplement of paper PMC12533247.

Legend:
[1] = test system: HSV-1 K26-GFP infected 3D skin equivalent; assay: % activity on HSV-1 GFP signal (0 = infected DMSO control, -100 = uninfected control); higher = higher signal (negative = inhibition / toxicity); details: time (h post infection): 48
Method: (§1)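 Triplicate dose-response (0.04 to 10 uM) of 11 top compounds in 3D bioprinted skin equivalents (submerged and ALI models) infected with GFP-HSV-1 K26 at MOI 0.1 and fixed at 48 hpi. GFP (virus) and tdTomato (fibroblast viability) signals are normalised to per-plate controls.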

[2] = test system: HSV-1 K26-GFP infected primary human skin cells; assay: % change of HSV-1 GFP signal vs untreated infected cells; higher = less antiviral inhibition; details: cell type: primary dermal fibroblasts, time (h post infection): 48
Method: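 2D primary donor-derived dermal fibroblasts infected with GFP-HSV-1 K26 at MOI 1, treated 1 h later with compound dilutions and read at 48 hpi on IncuCyte. GFP integrated intensity is normalised to mock-infected and untreated infected wells (% change; -100 = full inhibition).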

[3] = test system: HSV-1 K26-GFP infected 3D skin equivalent; assay: % change of tdTomato fibroblast signal relative to infected DMSO control; higher = higher signal (negative = inhibition / toxicity); details: time (h post infection): 48
Method: as §1

[4] = test system: primary dermal fibroblasts; assay: % change in live cells vs DMSO control; higher = less cytotoxic; details: time (h post treatment): 48
Method: (§2)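 Cytotoxicity in uninfected 2D primary donor keratinocytes (20 h post treatment) and fibroblasts (48 h post treatment), measured with NucSpot live/dead dyes on IncuCyte. Live cells are normalised to the 0.2% DMSO control and shown as % change. Three biological replicates for each of donors 3, 4 and 5.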

[5] = test system: primary keratinocytes; assay: as above; details: time (h post treatment): 20
Method: as §2

Cc1nc(N(C)C(=O)Cc2ccc(-c3ccccn3)cc2)sc1S(N)(=O)=O [Pritelivir]
Details	% activity on HSV-1 GFP signal [%]	% change in live cells [%]	% change of HSV-1 GFP signal [%]	% change of tdTomato fibroblast signal [%]
[1], 0.041152 µM, model: ALI	4.25	–	–	–
[1], 0.041152 µM, model: submerged	-6.28	–	–	–
[1], 0.123457 µM, model: ALI	-38.2	–	–	–
[1], 0.123457 µM, model: submerged	-11	–	–	–
[1], 0.37037 µM, model: ALI	-92.9	–	–	–
[1], 0.37037 µM, model: submerged	-37.4	–	–	–
[1], 1.111111 µM, model: ALI	-106	–	–	–
[1], 1.111111 µM, model: submerged	-83.7	–	–	–
[1], 3.33333 µM, model: ALI	-106	–	–	–
[1], 3.33333 µM, model: submerged	-96.7	–	–	–
[1], 10 µM, model: ALI	-102	–	–	–
[1], 10 µM, model: submerged	-94.6	–	–	–
[2], 0.001 µM, donor: 3	–	–	4.72	–
[2], 0.001 µM, donor: 4	–	–	1.2	–
[2], 0.003 µM, donor: 3	–	–	1.04	–
[2], 0.003 µM, donor: 4	–	–	-0.451	–
[2], 0.0091 µM, donor: 3	–	–	-2.12	–
[2], 0.0091 µM, donor: 4	–	–	-4.4	–
[2], 0.0274 µM, donor: 3	–	–	-9.3	–
[2], 0.0274 µM, donor: 4	–	–	-16.7	–
[2], 0.0823 µM, donor: 3	–	–	-30	–
[2], 0.0823 µM, donor: 4	–	–	-36.8	–
[2], 0.2469 µM, donor: 3	–	–	-61	–
[2], 0.2469 µM, donor: 4	–	–	-74.4	–
[2], 0.7407 µM, donor: 3	–	–	-81.3	–
[2], 0.7407 µM, donor: 4	–	–	-91.2	–
[2], 2.2222 µM, donor: 3	–	–	-90.9	–
[2], 2.2222 µM, donor: 4	–	–	-99.47	–
[2], 6.6667 µM, donor: 3	–	–	-93.7	–
[2], 6.6667 µM, donor: 4	–	–	-99.82	–
[2], 20 µM, donor: 3	–	–	-98.48	–
[2], 20 µM, donor: 4	–	–	-99.71	–
[3], 0.041152 µM, model: ALI	–	–	–	16.3
[3], 0.041152 µM, model: submerged	–	–	–	11.8
[3], 0.123457 µM, model: ALI	–	–	–	6.72
[3], 0.123457 µM, model: submerged	–	–	–	-3.78
[3], 0.37037 µM, model: ALI	–	–	–	0.531
[3], 0.37037 µM, model: submerged	–	–	–	0.74
[3], 1.111111 µM, model: ALI	–	–	–	-3.11
[3], 1.111111 µM, model: submerged	–	–	–	-3.09
[3], 3.33333 µM, model: ALI	–	–	–	-3.08
[3], 3.33333 µM, model: submerged	–	–	–	-6.25
[3], 10 µM, model: ALI	–	–	–	12
[3], 10 µM, model: submerged	–	–	–	-0.666
[4], 0.082305 µM, donor: 3	–	-10.3	–	–
[4], 0.082305 µM, donor: 4	–	-2.67	–	–
[4], 0.082305 µM, donor: 5	–	7.67	–	–
[4], 0.246914 µM, donor: 3	–	-8.67	–	–
[4], 0.246914 µM, donor: 4	–	-1	–	–
[4], 0.246914 µM, donor: 5	–	7.67	–	–
[4], 0.740741 µM, donor: 3	–	-8	–	–
[4], 0.740741 µM, donor: 4	–	-6.33	–	–
[4], 0.740741 µM, donor: 5	–	3.67	–	–
[4], 2.22222 µM, donor: 3	–	-9	–	–
[4], 2.22222 µM, donor: 4	–	-2	–	–
[4], 2.22222 µM, donor: 5	–	0.667	–	–
[4], 6.66667 µM, donor: 3	–	-11	–	–
[4], 6.66667 µM, donor: 4	–	1.33	–	–
[4], 6.66667 µM, donor: 5	–	-1	–	–
[4], 20 µM, donor: 3	–	-10	–	–
[4], 20 µM, donor: 4	–	7	–	–
[4], 20 µM, donor: 5	–	-1	–	–
[4], 60 µM, donor: 3	–	-10	–	–
[4], 60 µM, donor: 4	–	3.33	–	–
[4], 60 µM, donor: 5	–	-13	–	–
[5], 0.082305 µM, donor: 3	–	-3.33	–	–
[5], 0.082305 µM, donor: 4	–	-1	–	–
[5], 0.082305 µM, donor: 5	–	-1.67	–	–
[5], 0.246914 µM, donor: 3	–	-6.67	–	–
[5], 0.246914 µM, donor: 4	–	-18.3	–	–
[5], 0.246914 µM, donor: 5	–	-7.33	–	–
[5], 0.740741 µM, donor: 3	–	-8.33	–	–
[5], 0.740741 µM, donor: 4	–	-6	–	–
[5], 0.740741 µM, donor: 5	–	-0.667	–	–
[5], 2.22222 µM, donor: 3	–	-6.33	–	–
[5], 2.22222 µM, donor: 4	–	-4.67	–	–
[5], 2.22222 µM, donor: 5	–	-5.33	–	–
[5], 6.66667 µM, donor: 3	–	-0.667	–	–
[5], 6.66667 µM, donor: 4	–	-44.3	–	–
[5], 6.66667 µM, donor: 5	–	0.333	–	–
[5], 20 µM, donor: 3	–	-38	–	–
[5], 20 µM, donor: 4	–	-28.7	–	–
[5], 20 µM, donor: 5	–	7.67	–	–
[5], 60 µM, donor: 3	–	-78.3	–	–
[5], 60 µM, donor: 4	–	-61.7	–	–
[5], 60 µM, donor: 5	–	-20	–	–
